According to patent publication US7989466B2, “Methods to inhibit or augment an inflammatory response” (Cambridge Enterprise Limited, priority 1999, dated 2011):
Like-named read-outs stand apart in the source and are kept apart here. Positions of bridges follow the written chain, without caps; N, C: chain ends. Non-standard residues stand in square brackets, D forms with d. Residues, ends and D or L forms follow the SMILES beside them. No end group written: not given here.

Experiments:
[1] = test system: chemokine induced calcium flux; experiment: Intracellular calcium flux in THP-1 cells (Fura2); type: cell-based, human
Protocol: CRD-Leu4Ile11Cys13 peptide 3(3-12)[MCP-1] at 6.7 μg/ml was incubated with THP-1 cells (2×10^6 cells/ml) for 25 minutes prior to exposure to agonist (10 ng/ml) and measurement of flux. The second exposure to agonist is 2 minutes later. Fluorescence is measured at 510 nm.
Monocytes, eosinophils, neutrophils and lymphocytes loaded with Fura-2 (0.1 nmol/10^5 cells) are stimulated with a chemokine in the presence or absence of the therapeutic agent, and [Ca^2+]i-related fluorescence changes are recorded (Von Tschanner et al., Nature, 324, 369 (1986)). […] The Fura-2 fluorescence of the monocyte suspension is measured at 37° C. in a single excitation, single emission (500 nm) wavelength Perkin-Elmer LS5 fluorometer. [Ca^2+]i is calculated from changes in fluorescence measured at a single excitation wavelength of 340 nm.
After peptide 3 binds to its receptor, it may block proteins required to effect the response (e.g., block specific integrins needed for chemokine-induced migration but not fNLP or TGFb induced migration), down regulate a chemokine receptor, or interfere with signal transduction mechanisms. Interference with signal transduction mechanisms can be detected in either a direct or indirect manner (for example, using assays for measuring intracellular calcium flux, cAMP, pI3, kinase activity, and DAG).

[2] = test system: lung CD3, CD4, B220 cells; experiment: Lung cell number and type in normal mice; type: in vivo, mouse; conditions: high dose, all routes of administration, versus PBS controls
Protocol: To determine whether increasing doses of CRD-Leu4Ile11Cys13 peptide 3(3-12)[MCP-1] alters the cell number and type of cell within the lungs of normal mice, mice were injected intravenously, intravenously and intratracheally, or intratracheally alone with CRD-Leu4Ile11Cys13 peptide 3(3-12)[MCP-1]. Mice were sacrificed at 20-24 hours post injection. Lungs were collected for isolation of cells, which were subsequently counted and characterized by surface staining for CD3, CD4, CD8, B220, and Mac-1.

THP-1 cells = experiment: Agonist activity: agent in the lower compartment of the THP-1 migration chamber; conditions: agent in place of chemokine
[3] = test system: MIP1α induced human monocyte migration; experiment: Human monocyte migration, MIP1α; type: cell-based; conditions: n.s. = no statistically significant inhibition
Protocol: (§1) Agents may also be screened in a chemotactic assay which employs human neutrophils, eosinophils, mast cells, basophils, platelets, lymphocytes or monocytes. For monocytes, 9 mls of fresh blood are transferred to a tube containing 1 ml of 3.8% sodium citrate, and left at room temperature for 15 minutes. Five mls of this anti-coagulated blood are carefully layered over 3.5 ml Polymorphprep® (Nycomed Pharma, Oslo), and centrifuged at 500 g for 35 minutes per the manufacturer's instructions. The top band at the sample/medium interface contains monocytes. The monocytes are carefully removed with a glass pipette, and reconstituted to the original volume (5 ml). The cells are washed with PBS plus 10% fetal calf serum, and centrifuged at 400 g for 10 minutes. The washing step is repeated three times before the cells are counted. Cells are resuspended at 1×10^7 cells/ml in RPMI-1640+10% fetal calf serum (FCS). The monocytes are cultured for two days at 37° C. in a humidified atmosphere of 5% CO2.
(§2) On day 2, the cells are counted, spun down, and reconstituted to 1×10^7 cells/ml in Gey's balanced salt solution+1 mg/ml bovine serum albumin (BSA). […]

[4] = test system: IL8 induced human monocyte migration; experiment: Human monocyte migration, IL8; type: cell-based; conditions: n.s. = no statistically significant inhibition
Protocol: as §1, §2

[5] = test system: SDF-1α induced human monocyte migration; experiment: Human monocyte migration, SDF-1α; type: cell-based; conditions: n.s. = no statistically significant inhibition
Protocol: as §1, §2

HIV (IIIb), T-tropic = conditions: 100 μM peptide; for effect on HIV infection / replication in Jurkat cells, in words: reverse transcriptase assay; for inhibition of reverse transcriptase activity: Jurkat cells, HIV IIIb

CC[C@@H](C)[C@H]1NC(=O)[C@@H](CCC(N)=O)NC(=O)[C@H](N)CSSC[C@H](C(N)=O)NC(=O)[C@@H](CC(C)C)NC(=O)[C@@H](CC(=O)O)NC(=O)[C@H]2CCCN2C(=O)[C@@H](CCCCN)NC(=O)[C@@H](CCC(N)=O)NC(=O)[C@@H](CCCCN)NC(=O)[C@@H](Cc2c[nH]c3ccccc23)NC1=O (H-[dC][dQ][dI][dW][dK][dQ][dK][dP][dD][dL][dC]-NH2; disulfide 1-11; N-terminus assumed)
effect on MCP-1 induced calcium flux [1]: did not block | effect on SDF-1 induced calcium flux [1]: did block | percentages of CD3, CD4 and B220 cells in lungs of normal mice [2]: significantly reduced | serum TNF-α in LPS treated mice, in words (LPS-induced serum TNF-α; i.v. loading dose and s.c. bolus 30 minutes before 583 μg LPS i.p.): dose dependent decrease | agonist activity (THP-1 cells): No agonist activity was detected in the concentration range where inhibitory effects on chemokine-induced migration are seen (<1 μM)

C=CCCCCCCCCC(=O)N[C@H]1CCC(=O)NC1=O [A-I (NR58.4), [3S]-3-(undec-10-enoylamino)piperidine-2,6-dione]
local tolerance at the site of injection (LPS-induced serum TNF-α; mouse, in vivo, sc): irritation was noted at the site of injection

EICADPKQKWVQ [peptide 3(1-12)[MCP-1]]
% inhibition at 100 μM versus MIP1α, human monocyte migration [3]: 120% | % inhibition at 100 μM versus IL8, human monocyte migration [4]: 106% | % inhibition at 100 μM versus SDF-1α, human monocyte migration [5]: 108% | effect on HIV infection / replication in Jurkat cells, in words (HIV (IIIb), T-tropic; listed as Peptide 3(1-12)[MCP-1]): effective inhibitor of Jurkat cell infection by HIV | effect on HIV infection / replication in Jurkat cells, in words (HIV (IIIb), T-tropic; listed as peptide 3): but not peptide 3 (100 μM) markedly inhibited virus replication

SYRRITSSKCPKEAV [peptide 2(1-15)[MCP-1]]
% inhibition at 100 μM versus MIP1α, human monocyte migration [3]: n.s. | % inhibition at 100 μM versus IL8, human monocyte migration [4]: n.s. | % inhibition at 100 μM versus SDF-1α, human monocyte migration [5]: n.s. | inhibition of reverse transcriptase activity (HIV (IIIb), T-tropic): 75±10% | inhibition of reverse transcriptase activity (HIV (IIIb), T-tropic; listed as Peptide 2): 75% | inhibition of reverse transcriptase activity (HIV (IIIb), T-tropic; listed as peptide 2): 75% | effect on HIV infection / replication in Jurkat cells, in words (HIV (IIIb), T-tropic): more effective than peptide 3(1-12)[MCP-1] (SEQ ID NO:1), and as effective as SDF1α | agonist activity (THP-1 cells): weak agonist properties
